Source: ChEMBL document CHEMBL1201862, “PubChem BioAssay data set” (2004)
Active and inactive are the calls of the source.

Tests used:
[1] = target: Peroxisome proliferator-activated receptor gamma/Nuclear receptor coactivator 2 (Homo sapiens, UniProt P37231); format: functional;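 also: agonist potency for raising coactivator recruitment to the receptor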
[2] = target: Peroxisome proliferator-activated receptor gamma/Nuclear receptor coactivator 1 (Homo sapiens, UniProt P37231); format: functional;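 also: agonist potency as compounds enhance coactivator SRC-1 recruitment to PPARgamma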
Sequence of Peroxisome proliferator-activated receptor gamma/Nuclear receptor coactivator 1 (P37231 whole entry): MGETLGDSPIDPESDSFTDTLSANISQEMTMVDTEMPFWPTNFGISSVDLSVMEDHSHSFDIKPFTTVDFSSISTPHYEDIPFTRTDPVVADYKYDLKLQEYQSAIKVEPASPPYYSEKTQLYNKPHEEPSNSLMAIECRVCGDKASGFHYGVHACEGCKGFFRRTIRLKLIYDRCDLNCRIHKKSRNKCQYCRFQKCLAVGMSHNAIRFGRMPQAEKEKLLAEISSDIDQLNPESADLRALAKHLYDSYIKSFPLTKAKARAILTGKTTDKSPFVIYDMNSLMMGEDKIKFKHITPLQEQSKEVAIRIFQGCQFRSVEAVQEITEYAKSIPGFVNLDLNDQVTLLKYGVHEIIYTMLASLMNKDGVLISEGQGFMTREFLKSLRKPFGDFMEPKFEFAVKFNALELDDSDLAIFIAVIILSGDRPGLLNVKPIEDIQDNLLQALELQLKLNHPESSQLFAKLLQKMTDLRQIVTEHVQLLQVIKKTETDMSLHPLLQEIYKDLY
Sequence of Peroxisome proliferator-activated receptor gamma/Nuclear receptor coactivator 1 (Q15788 whole entry, further chain): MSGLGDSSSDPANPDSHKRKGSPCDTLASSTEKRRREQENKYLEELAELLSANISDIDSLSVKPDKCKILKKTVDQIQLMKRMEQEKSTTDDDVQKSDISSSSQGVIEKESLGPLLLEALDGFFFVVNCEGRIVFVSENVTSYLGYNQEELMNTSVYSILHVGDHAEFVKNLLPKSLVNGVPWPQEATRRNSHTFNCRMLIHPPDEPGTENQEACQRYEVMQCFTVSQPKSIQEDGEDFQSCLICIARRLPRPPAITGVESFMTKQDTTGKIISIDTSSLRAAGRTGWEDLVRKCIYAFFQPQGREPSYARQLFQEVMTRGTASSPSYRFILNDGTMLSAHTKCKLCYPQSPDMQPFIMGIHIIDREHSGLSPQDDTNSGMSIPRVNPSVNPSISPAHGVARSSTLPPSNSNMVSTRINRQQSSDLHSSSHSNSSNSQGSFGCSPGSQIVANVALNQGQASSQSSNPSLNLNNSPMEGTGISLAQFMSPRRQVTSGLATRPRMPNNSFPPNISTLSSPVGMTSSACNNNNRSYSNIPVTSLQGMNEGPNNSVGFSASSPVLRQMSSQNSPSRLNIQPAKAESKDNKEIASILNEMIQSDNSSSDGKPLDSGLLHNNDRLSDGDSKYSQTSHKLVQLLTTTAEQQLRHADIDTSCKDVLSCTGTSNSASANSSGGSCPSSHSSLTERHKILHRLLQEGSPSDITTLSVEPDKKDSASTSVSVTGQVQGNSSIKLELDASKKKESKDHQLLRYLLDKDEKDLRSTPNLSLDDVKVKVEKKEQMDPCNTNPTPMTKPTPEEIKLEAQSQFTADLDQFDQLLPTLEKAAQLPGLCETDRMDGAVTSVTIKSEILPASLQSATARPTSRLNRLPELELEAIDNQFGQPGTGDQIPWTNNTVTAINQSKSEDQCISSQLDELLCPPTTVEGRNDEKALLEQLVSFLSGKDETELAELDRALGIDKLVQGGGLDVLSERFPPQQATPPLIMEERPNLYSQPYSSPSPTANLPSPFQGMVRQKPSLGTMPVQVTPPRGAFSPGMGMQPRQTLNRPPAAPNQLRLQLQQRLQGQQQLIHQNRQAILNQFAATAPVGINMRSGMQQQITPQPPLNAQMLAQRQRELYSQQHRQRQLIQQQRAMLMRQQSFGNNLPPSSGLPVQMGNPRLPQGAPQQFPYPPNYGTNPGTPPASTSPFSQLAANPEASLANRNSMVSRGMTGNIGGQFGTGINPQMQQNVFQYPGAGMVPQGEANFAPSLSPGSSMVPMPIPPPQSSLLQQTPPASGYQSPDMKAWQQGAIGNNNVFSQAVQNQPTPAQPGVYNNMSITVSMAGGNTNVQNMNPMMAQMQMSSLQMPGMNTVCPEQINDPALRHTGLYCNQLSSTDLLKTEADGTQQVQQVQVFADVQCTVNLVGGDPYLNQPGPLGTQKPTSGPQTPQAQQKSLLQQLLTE

[3] = target: Peroxisome proliferator-activated receptor gamma/Nuclear receptor coactivator 3 (Homo sapiens, UniProt P37231); format: functional;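 also: agonist potency for raising coactivator recruitment to the receptor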
Vero = assay: inhibition of WNV-induced cytopathic effect – cell-based, CPE readout (AID 1621); format: functional; details: Chlorocebus sabaeus
[4] = A Cell Based Secondary Assay To Explore Cytotoxicity of Compounds that Sensitize Mycobacterium Tuberculosis to Beta-Lactam Antibiotics.; format: functional
NS3 = NS3 (Hepatitis C virus, UniProt A3EZJ3); assay: PubChem AID 2173; design: species or system Hepacivirus hominis
Sequence of NS3 (A3EZJ3 whole entry): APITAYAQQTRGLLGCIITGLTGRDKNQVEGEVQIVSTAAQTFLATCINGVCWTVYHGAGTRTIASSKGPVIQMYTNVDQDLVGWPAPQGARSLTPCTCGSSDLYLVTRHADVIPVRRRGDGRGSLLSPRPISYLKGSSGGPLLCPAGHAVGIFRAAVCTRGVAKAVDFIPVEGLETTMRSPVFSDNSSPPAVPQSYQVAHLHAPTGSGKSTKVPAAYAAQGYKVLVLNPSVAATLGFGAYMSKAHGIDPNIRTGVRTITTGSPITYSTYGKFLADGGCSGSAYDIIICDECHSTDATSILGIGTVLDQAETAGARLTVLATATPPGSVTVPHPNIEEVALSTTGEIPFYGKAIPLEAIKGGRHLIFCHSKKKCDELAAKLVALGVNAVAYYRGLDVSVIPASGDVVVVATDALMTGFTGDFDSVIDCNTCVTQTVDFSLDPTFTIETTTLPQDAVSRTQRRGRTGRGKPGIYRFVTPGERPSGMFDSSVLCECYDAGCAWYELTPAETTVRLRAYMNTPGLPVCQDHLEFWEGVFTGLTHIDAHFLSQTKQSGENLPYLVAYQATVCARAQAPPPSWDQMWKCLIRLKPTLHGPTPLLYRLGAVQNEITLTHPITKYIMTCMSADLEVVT

[5] = viability of PTEN-deleted HCT116 cells – cell-based, HCT116 PTEN knockout, dose response (AID 1047); format: functional;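 also: HCT116 colon tumor cells with PTEN knocked out; cells exposed to compound for 60 hours before readout; potency for loss of cell viability measured by luminescence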
[6] = target: Protein-tyrosine kinase 2-beta (Homo sapiens, UniProt Q14289);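 also: potency of inhibitors of PYK2 kinase phosphorylation of poly-GT substrate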
[7] = viability of HCT116 lacking mutant beta-catenin – cell-based, human colon tumor, dose response (AID 1045); format: functional;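 also: HCT116 colon tumor cells with beta catenin knocked out; cells exposed to compound for 60 hours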
[8] = target: Heat shock protein HSP 90-alpha (Homo sapiens, UniProt P07900); format: functional, organism-based
[9] = target: T1, Neuropeptide Y receptor type 1 (Homo sapiens, UniProt P25929); format: functional;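 also: HEK293 cells with a CNG channel challenged with NPY then isoproterenol; potency as antagonist that reverses NPY suppression of cAMP signal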
T1 sequence (P25929 whole entry): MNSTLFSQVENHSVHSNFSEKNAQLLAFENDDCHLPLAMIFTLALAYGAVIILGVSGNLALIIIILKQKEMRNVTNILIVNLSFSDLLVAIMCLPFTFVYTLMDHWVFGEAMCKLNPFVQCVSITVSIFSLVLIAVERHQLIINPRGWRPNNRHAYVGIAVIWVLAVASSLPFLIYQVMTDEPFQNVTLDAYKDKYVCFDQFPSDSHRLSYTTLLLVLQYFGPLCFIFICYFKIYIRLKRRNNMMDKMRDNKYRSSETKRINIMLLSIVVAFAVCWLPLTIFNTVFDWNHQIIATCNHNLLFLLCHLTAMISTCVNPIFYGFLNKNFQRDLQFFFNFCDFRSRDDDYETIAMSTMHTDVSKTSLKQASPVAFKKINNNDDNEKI

[10] = target: T2, Neuropeptide Y receptor type 2 (Homo sapiens, UniProt P49146); format: functional, cell-based;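 also: HEK293 cells expressing the receptor and a CNG channel; stimulus was NPY near EC95 followed by isoproterenol to raise cAMP; antagonist potency measured as restoring cAMP signal that NPY suppresses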
T2 sequence (P49146 whole entry): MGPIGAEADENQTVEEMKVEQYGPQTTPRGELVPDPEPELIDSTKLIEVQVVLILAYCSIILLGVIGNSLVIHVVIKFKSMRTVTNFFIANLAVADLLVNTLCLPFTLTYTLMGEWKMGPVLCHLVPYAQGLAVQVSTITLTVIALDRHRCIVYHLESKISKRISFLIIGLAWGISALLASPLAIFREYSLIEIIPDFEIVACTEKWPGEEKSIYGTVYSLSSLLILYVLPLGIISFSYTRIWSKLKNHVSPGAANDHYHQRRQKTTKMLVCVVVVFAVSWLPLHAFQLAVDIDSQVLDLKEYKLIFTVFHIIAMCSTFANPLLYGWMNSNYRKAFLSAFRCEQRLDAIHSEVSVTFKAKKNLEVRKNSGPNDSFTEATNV

[11] = antiviral protection against BTV-induced cell death – arbovirus, BSR cells, confirmation (AID 1250); format: functional;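 also: protection from viral cytopathic effect measured as cell viability by ATP luminescence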
[12] = target: G-protein coupled receptor 55 (Homo sapiens, UniProt Q9Y2T6); assay: selective activators of receptor GPR55 – imaging, U2OS cells, beta-arrestin-GFP redistribution, primary screen (AID 1961); format: functional
Sequence of G-protein coupled receptor 55 (Q9Y2T6 whole entry): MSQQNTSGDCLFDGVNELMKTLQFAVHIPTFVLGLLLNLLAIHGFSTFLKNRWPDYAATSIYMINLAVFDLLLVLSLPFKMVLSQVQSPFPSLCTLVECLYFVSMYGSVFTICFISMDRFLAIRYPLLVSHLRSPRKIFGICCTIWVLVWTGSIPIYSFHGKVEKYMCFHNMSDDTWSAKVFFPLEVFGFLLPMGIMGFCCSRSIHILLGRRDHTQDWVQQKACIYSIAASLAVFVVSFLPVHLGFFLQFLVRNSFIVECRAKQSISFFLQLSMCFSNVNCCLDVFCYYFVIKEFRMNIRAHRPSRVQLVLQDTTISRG

[13] = target: Luciferin 4-monooxygenase (Photinus pyralis, UniProt P08659); assay: Counter Screen for Luciferase-based Assay Positives. [Related pubchem assays: 620, 618, 411 ]
Sequence of Luciferin 4-monooxygenase (P08659 whole entry): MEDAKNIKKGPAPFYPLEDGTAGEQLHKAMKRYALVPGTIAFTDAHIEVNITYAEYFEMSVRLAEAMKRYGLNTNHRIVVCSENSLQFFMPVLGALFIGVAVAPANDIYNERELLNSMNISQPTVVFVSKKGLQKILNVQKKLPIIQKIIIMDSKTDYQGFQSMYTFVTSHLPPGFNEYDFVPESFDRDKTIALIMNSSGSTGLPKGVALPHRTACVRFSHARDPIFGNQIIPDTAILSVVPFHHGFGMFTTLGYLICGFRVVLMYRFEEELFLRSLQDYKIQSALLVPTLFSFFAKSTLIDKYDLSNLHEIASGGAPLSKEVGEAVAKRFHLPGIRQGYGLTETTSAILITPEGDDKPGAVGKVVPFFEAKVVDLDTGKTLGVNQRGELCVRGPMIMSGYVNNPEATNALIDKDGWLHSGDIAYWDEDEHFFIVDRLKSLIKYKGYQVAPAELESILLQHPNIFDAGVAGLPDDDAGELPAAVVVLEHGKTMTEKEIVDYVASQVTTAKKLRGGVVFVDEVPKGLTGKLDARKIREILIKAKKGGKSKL

HT-1080 = assay: HT1080 cell viability loss – fluorescence readout (AID 620); format: functional, cell-based; details: Homo sapiens
[14] = target: Mitogen-activated protein kinase 10 (Homo sapiens, UniProt P53779); assay: Dose response biochemical screening assay for inhibitors of c-Jun N-Terminal Kinase 3 (JNK3). [Related pubchem assays: 746 ]
Sequence of Mitogen-activated protein kinase 10 (P53779 whole entry): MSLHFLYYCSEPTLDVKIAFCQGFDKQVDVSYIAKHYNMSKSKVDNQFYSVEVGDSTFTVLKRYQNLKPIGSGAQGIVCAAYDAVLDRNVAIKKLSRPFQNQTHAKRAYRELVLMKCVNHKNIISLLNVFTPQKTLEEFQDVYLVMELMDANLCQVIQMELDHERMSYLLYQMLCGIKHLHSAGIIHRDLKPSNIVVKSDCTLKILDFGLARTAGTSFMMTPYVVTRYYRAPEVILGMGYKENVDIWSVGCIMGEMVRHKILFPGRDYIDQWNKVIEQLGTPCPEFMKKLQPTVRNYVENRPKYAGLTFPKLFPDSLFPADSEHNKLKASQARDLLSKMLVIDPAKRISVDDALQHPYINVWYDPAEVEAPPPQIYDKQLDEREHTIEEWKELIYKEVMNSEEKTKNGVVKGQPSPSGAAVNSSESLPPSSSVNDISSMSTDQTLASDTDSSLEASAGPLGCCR

[15] = target: T3, Ubiquitin-conjugating enzyme E2 N (Homo sapiens, UniProt P61088); format: functional;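 also: Dose-response confirmation in a TR-FRET assay detecting UBC13-driven polyubiquitin chain formation, inhibition measured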
T3 sequence (P61088 whole entry): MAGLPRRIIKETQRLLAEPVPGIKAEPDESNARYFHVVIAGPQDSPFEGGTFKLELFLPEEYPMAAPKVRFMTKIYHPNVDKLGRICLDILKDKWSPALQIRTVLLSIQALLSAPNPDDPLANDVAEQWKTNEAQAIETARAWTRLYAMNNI

[16] = target: Glyceraldehyde-3-phosphate dehydrogenase (Homo sapiens, UniProt P04406)
Sequence of Glyceraldehyde-3-phosphate dehydrogenase (P04406 whole entry): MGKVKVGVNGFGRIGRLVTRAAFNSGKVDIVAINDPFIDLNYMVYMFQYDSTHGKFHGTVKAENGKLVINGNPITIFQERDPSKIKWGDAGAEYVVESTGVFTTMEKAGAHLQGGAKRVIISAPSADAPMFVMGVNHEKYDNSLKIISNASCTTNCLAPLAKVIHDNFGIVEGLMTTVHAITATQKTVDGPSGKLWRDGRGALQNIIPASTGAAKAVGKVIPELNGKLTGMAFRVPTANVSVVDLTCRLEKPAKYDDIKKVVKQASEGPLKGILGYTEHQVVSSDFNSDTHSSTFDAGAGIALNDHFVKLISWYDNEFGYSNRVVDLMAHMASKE

[17] = target: Heat shock cognate 71 kDa protein (Homo sapiens, UniProt P11142); assay: In Vitro Hsc70 Dose Response Fluorescence Polarization Assay. [Related pubchem assays: 1072 ]
[18] = target: Heat shock 70 kDa protein 1A (Homo sapiens, UniProt P0DMV8); assay: inhibition of Hsp70 binding activity – biochemical, fluorescence polarization, SAR follow-up (AID 1072)
Sequence of Heat shock 70 kDa protein 1A (P0DMV8 whole entry): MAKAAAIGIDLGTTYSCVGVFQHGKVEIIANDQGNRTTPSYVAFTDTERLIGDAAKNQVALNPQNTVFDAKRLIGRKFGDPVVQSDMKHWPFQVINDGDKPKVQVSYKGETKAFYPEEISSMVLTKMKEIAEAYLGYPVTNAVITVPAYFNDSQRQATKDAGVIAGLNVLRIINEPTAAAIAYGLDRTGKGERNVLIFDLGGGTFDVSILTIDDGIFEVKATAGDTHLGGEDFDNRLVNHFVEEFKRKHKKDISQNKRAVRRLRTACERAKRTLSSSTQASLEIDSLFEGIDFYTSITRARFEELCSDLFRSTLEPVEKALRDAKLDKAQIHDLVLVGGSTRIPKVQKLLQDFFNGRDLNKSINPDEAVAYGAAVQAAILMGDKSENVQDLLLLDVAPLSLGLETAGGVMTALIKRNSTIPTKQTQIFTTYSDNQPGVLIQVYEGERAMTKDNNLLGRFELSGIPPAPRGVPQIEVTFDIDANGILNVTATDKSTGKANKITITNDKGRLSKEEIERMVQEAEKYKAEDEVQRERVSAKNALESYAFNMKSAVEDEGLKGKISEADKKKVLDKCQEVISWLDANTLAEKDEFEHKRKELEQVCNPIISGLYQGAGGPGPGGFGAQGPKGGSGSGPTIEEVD

[19] = target: T4, Alkaline phosphatase, tissue-nonspecific isozyme (Homo sapiens, UniProt P05186); assay: potency against alkaline phosphatase TNAP – biochemical, luminescent, dose response, SAR follow-up (AID 1056)
T4 sequence (P05186 whole entry): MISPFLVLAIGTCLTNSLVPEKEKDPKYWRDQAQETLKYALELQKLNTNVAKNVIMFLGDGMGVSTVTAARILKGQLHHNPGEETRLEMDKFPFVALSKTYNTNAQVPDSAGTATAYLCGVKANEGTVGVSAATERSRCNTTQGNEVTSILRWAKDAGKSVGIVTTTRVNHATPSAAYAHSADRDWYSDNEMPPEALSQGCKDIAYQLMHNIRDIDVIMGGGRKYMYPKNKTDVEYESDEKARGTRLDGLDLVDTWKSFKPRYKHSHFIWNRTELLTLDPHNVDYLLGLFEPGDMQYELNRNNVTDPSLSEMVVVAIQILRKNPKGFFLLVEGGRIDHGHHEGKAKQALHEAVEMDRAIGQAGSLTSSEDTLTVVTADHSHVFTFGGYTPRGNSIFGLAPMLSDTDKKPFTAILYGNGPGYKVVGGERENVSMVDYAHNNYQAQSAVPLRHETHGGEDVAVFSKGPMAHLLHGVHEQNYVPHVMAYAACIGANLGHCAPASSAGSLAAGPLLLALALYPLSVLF

## Cc1cc(/C=C2/NC(=O)N(Cc3ccccc3F)C2=O)c(C)n1C
[1]
  EC50: > 79.4 µM (not active)
[2]
  EC50: > 79.4 µM (not active)
[3]
  EC50: > 79.4 µM (not active)

## CCOc1ccc(NC(=O)c2c(NC(=O)CN3CCN(C)CC3)sc3c2CCC3)cc1
Vero
  IC50: 18.3 µM (active)

## O=C1NC(=S)NC(=O)C1=NNc1ccc2c(c1)OCCO2
[4]
  CC50: > 40 µM (active)

## CCCCCOc1ccc(/C=c2\sc3nc(=O)c(-c4ccccc4)nn3c2=O)cc1OC
NS3
  IC50: > 36.3 µM (not active)

## CN1CCc2nc3sc(C(=O)C45CC6CC(CC(C6)C4)C5)c(N)c3cc2C1
[5]
  EC50: 20.5 µM (active)
[6]
  IC50: 13.8 µM (not active)
[7]
  EC50: 27.4 µM (active)
[8]
  AC50: 1.82 µM (active)

## CCCCCC(=O)NC(=S)Nc1ccc(Br)cc1C
[9]
  IC50: 7.66 µM (active)
[10]
  IC50: 6.11 µM (active)

## COc1ccccc1-c1cc(C(=O)N2CCc3ccccc3C2)c2ccccc2n1
[11]
  IC50: 28.8 µM (active)
[12]
  EC50: 3.06 µM (active)

## Cc1cccc(CSC2=NCCN2C(=O)c2ccc(Br)o2)c1
[9]
  IC50: < 12 µM (not active)
[10]
  IC50: 12.8 µM (not active)

## COc1ccc(C(=O)Nn2c(SCC(=O)N3CCC(C)CC3)nc3ccccc3c2=O)cc1
[13]
  EC50: < 0.2 µM (active)
HT-1080
  EC50: > 50 µM (not active)

## COc1ccc(/C=N/n2c(N)nc3ccccc32)cc1OC
[14]
  IC50: 16.6 µM (not active)

## O=C1C(/C=N/Cc2cccnc2)=C(O)c2ccccc21
[14]
  IC50: 32.1 µM (not active)

## O=C(Nc1sc2c(c1C(=O)O)CCCCC2)c1ccccc1
[11]
  IC50: 28.4 µM (active)

## CCOC(=O)CS(=O)(=O)c1ccc(O)cc1
[1]
  EC50: > 79.4 µM (not active)
[2]
  EC50: > 79.4 µM (not active)
[3]
  EC50: > 79.4 µM (not active)

## CCN(CC)CCC(c1cc(OC)c(OC)c(OC)c1)c1c(OC)cc(OC)c2c(-c3ccccc3)cc(=O)oc12 (centres undefined)
Vero
  IC50: 30.8 µM (active)
[15]
  IC50: > 20 µM (inactive)

## Cc1ccccc1OCC(=O)N/N=C/c1cccc(Oc2ccc([N+](=O)[O-])cc2[N+](=O)[O-])c1
[4]
  CC50: 33.9 µM (active)

## CN(C(=O)c1ccco1)c1nc2c(s1)CCCC2
[13]
  EC50: > 100 µM (not active)
HT-1080
  EC50: > 50 µM (not active)

## CC1(C)Cc2c(C#N)c(NCCc3ccccc3)nc(-c3ccco3)c2CO1
NS3
  IC50: 35.3 µM (not active)

## O=C(CSc1nnc[nH]1)NCCOc1ccccc1
[16]
  IC50: > 100 µM (not active)
[17]
  IC50: > 100 µM (not active)
[18]
  IC50: > 100 µM (not active)
[19]
  IC50: 28.8 µM (active)
